In one assay the target is T1, R:G complex (Bos taurus, UniProt P04896).
T1 construct: HA signal peptide (N); made in house; host or cells: receptor: Sf9 insect cells (baculovirus); Gs subunits: HighFive insect cells
Description: Analytical gel filtration, stability of the R:G complex. The protocol: […]. Nature 2011 469, 175-180). To maintain the high-affinity nucleotide-free state of the complex, apyrase (25 mU/ml, NEB) was added after 90 min to hydrolyze residual GDP released from G ? supon binding to the receptor. GMP resulting from hydrolysis of GDP by apyrase has very poor affinity for the G protein in the complex.
At this stage the mixture contains the R:G complex, non-functional Gs, and an excess of β2AR. […] To prevent cysteine bridge-mediated aggregation of R:G complexes, 100 μM TCEP was added to the eluted protein prior to concentrating it with a 50 kDa MWCO Millipore concentrator. Of note, it was discovered later that crystal growth improved at even higher TCEP concentrations (above 1 mM) compared to 100 μM TCEP, and that the integrity of the R:G complex in MNG-3 was stable to 10 mM TCEP as measured by gel filtration analysis (FIG. 21C). In contrast, DDM-solubilized β2AR loses its ability to bind the high-affinity antagonist ^3H-dihydroalprenolol in 10 mM TCEP (data not shown), probably due to disruption of extracellular disulfide bonds. Iodoacetamide could not be used to block reactive cysteines on Gs alpha and beta subunits as it caused dissociation of the R:G complex (figure S9b). […] Peak fractions were pooled (FIG. 17b) and concentrated to approximately 90 mg ml^−1 with a 100 kDa MWCO Viva-spin concentrator and analyzed by SDS-PAGE/Coomassie brilliant blue staining (FIG. 17a) and gel filtration (FIG. 17c). To confirm a pure, homogeneous, and dephosphorylated preparation, the R:G complex was routinely analyzed by ion exchange chromatography (FIG. 17d).

For another assay, the target named is T2, T4L-β2AR (Homo sapiens, UniProt P07550, M96T/M98T/N187E).
T2 construct: HA signal peptide (N, cleaved yes); made in house; host or cells: Sf9 insect cells, recombinant baculovirus
As to the kind of experiment: Ligand binding affinity of T4L-β2AR with M96T, M98T mutations. An excerpt: To increase the probability of obtaining crystals of the R:G complex two strategies were used to increase the polar surface area on the extracellular side of the receptor. […] The PNGaseF-inaccessible glycosylation site of the β2AR at N187 was mutated to Glu.

This note sets out measurements from patent publication US9422359B2, “GPCR fusion protein containing an N-terminal autonomously folding stable domain, and crystals of the same” (The Board of Trustees of the Leland Stanford Junior …, priority 2011, dated 2016).

T1 sequence (P04896 1-380 isoform P04896-2, one chain of several): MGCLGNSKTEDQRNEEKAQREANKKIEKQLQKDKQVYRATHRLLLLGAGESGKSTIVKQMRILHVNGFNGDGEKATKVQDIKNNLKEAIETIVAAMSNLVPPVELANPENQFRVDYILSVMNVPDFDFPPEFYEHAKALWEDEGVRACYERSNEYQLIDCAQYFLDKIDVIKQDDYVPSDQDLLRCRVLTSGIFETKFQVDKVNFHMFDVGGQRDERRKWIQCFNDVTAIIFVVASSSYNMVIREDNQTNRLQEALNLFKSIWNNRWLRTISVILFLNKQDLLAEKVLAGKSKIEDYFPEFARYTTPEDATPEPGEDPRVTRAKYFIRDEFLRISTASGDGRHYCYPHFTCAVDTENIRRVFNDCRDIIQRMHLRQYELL

Regarding `NC(=O)CI` [iodoacetamide], at R:G complex (5 mM for 20 hrs at 20° C.), the “effect on the R:G complex” value was “led to dissociation of the complex”. With `CCCc1ccccc1OCC(O)CNC(C)C` (centres unmarked) [[3H]-Dihydroalprenolol, dihydroalprenolol], on T4L-β2AR, the “effect of the threonine mutations (M96T, M98T) on ligand binding affinity” value is recorded as “did not affect ligand binding affinity”. Regarding `O=P(O)(O)OP(=O)(O)O` [pyrophosphate], at R:G complex (phosphates used at 5 mM), the “effect on the R:G complex” value was “do not cause disruption of the complex”. `Nc1nc2c(ncn2[C@@H]2O[C@H](COP(=O)(O)OP(=O)(O)O)[C@@H](O)[C@H]2O)c(=O)[nH]1` [GDP]: the “effect on the R:G complex” value on R:G complex (nucleotides at 0.1 mM) was “cause dissociation of the R:G complex”.

With `Nc1nc2c(ncn2[C@@H]2O[C@H](COP(=O)(O)OP(=O)(O)OP(O)(O)=S)[C@@H](O)[C@H]2O)c(=O)[nH]1` [GTPγS], the “effect on the R:G complex” value at R:G complex (nucleotides at 0.1 mM) is “cause dissociation of the R:G complex”.
